# In US11865098B1, “Methods and compositions for treating excessive sleepiness” (Axsome Malta Ltd., priority 2017, dated 2024):
# Test system: adult patients with OSA and ES
# Test: SF-36v2 health-related quality of life, 12-week parallel study in OSA
# Type: in vivo, human
# Settings: week 12
# Protocol: This was a 12-week, double-blind, placebo-controlled, parallel-design study. Patients were randomized (1:1:2:2:2) to APC 37.5 mg, 75 mg, 150 mg, or 300 mg, or placebo for 12 weeks, and were stratified by adherence or nonadherence with primary OSA therapy.
# The SF-36 v2 consists of 2 summary scales (Physical Component Summary and Mental Component Summary) and 8 specific health status domains (Physical Function, Role Physical, Bodily Pain, General Health, Vitality, Social Functioning, Role Emotional, Mental Health) (Ware Jr et al., User's Manual for the SF-36v2™ Health Survey (2nd ed). QualityMetric Incorporated (Lincoln, RI); 2007). The EQ-5D-5L consists of 5 questions/dimensions (Mobility, Self-care, Usual Activities, Pain/Discomfort, and Anxiety/Depression) that have 5 response levels each (no problems, slight problems, moderate problems, severe problems, and extreme problems/unable to do) that are used to derive an overall EQ-5D-5L index score (0=death, 1=perfect health), and a health status visual analog scale (VAS) that is anchored at 0 with “the worst health you can imagine” and at 100 with “the best health you can imagine.” (The EuroQol Group. EQ-5D-5L User Guide. Version 2.1. April 2015. www.eurogol.org/fileadmin/user_upload/Documenten/PDF/Folders_Flyers/EQ-5D-5L_UserGuide_2015.pdf)
# Efficacy analyses were based on the modified intent-to-treat (mITT) population; there was no multiplicity adjustment for the SF-36 v2 or EQ-5D-5L. SF-36 v2 scores were scaled from 0 to 100 (higher scores on all scales represent better health), transformed to norm-based scores using US general-population data from SF-36 Manuals (Ware Jr et al., User's Manual for the SF-36v2™ Health Survey (2nd ed.). QualityMetric Incorporated (Lincoln, RI); 2007), and were analyzed using a mixed-effect model with repeated measures (MMRM); and baseline value of the efficacy endpoint was used to determine differences in changes from baseline. EQ-5D-5L VAS and index-score data were analyzed using an MMRM model. Safety and tolerability were assessed based on treatment-emergent adverse events (TEAEs), vital signs, electrocardiogram test, physical exams, and laboratory tests.
structure (smiles),measurement,setting,value
"NC(=O)OC[C@H](N)Cc1ccccc1 [JZP-110, (R)-2-amino-3-phenylpropyl carbamate]","SF-36v2 Role Physical, General Health, Social Functioning, Role Emotional vs placebo",150 mg,significantly greater changes from baseline relative to placebo
same,SF-36v2 Role Physical and Vitality domains and Physical Component Summary Scale vs placebo,300 mg,significantly greater improvements relative to placebo
same,SF-36v2 Mental Component Summary scores vs placebo,"37.5, 75, 150 mg similar",only APC 150 mg reaching statistical significance
same,"SF-36v2 Vitality domain, response vs MCID","75, 150, and 300 mg",exceeded the MCID
same,"SF-36v2 Physical Component Summary Scale, increase vs placebo",150 and 300 mg,statistically significant
same,SF-36v2 Vitality domain vs placebo,150 and 300 mg,statistically significant improvements relative to placebo
same,SF-36v2 Physical and Mental Component Summary changes vs MCID,,did not exceed the minimal clinically important difference
